# Test results: publication PMC10932281, “A Combination of β-Aescin and Newly Synthesized Alkylamidobetaines as Modern Components Eradicating the Biofilms of Multidrug-Resistant Clinical Strains of Candida glabrata” (International Journal of Molecular Sciences, 2024)
# Like-named read-outs stand apart in the source and are kept apart here.
# What was measured:
# Krafft temperature (TK) = format: physicochemical
# Protocol: CHNS elemental analysis was carried out by a Vario EL cube (Elementar, Germany) calibrated on acetanilide. Electrospray ionization mass spectroscopy (ESI-MS) (micrOTOF-Q instrument; Bruker Daltonics, Germany) allowed for the MS spectra to be obtained. The ESI-MS instrument was operated in the positive ion mode and calibrated with the Tunemix^TM mixture (Bruker Daltonics, Germany). The mass accuracy was better than 5 ppm. The obtained mass spectra were analyzed using DataAnalysis 3.4 software (Bruker Daltonics, Germany). ^1H NMR spectra were recorded on a Bruker AMX-500 spectrometer, using CDCl3 as a solvent. ^1H chemical shifts (in ppm) were calibrated to TMS as an internal reference. Melting points were determined using a Boetius melting point apparatus, while Krafft temperatures were determined according to the directions given in [47]. CMC is the minimum concentration above which micelles are formed in aqueous liquid. To obtain the CMC values, we used McGowan’s model. […] Molecular characteristic volumes (Vx) are found by the addition of the atomic characteristic volumes and the subtraction for the same factory (6.56 × 10^−6 m^3 mol^−1) for every covalent bond.
# C. glabrata 2853 = assay: Interaction of AABs (3 µM) with antifungal agents, modified checkerboard; format: cell-based, Candida glabrata
# C. glabrata DSM 1226 = tested on: C. glabrata DSM 1226; design: method as in PMID 37508306; conditions: ref [12]; cited from earlier work
# ERG11 and ALS3 = tested on: ERG11 and ALS3; design: method as in PMID 37508306; conditions: qRT-PCR; ref [12]; cited from earlier work
# C. glabrata cells = tested on: C. glabrata cells; design: method as in PMID 37508306; conditions: ref [12], cited from earlier work
# [1] = tested on: C. glabrata clinical isolate C27; design: method as in PMID 37508306; conditions: ref [12]; cited from earlier work
# C. glabrata 2586 = assay: Interaction of AABs (3 µM) with antifungal agents, modified checkerboard; format: cell-based, Candida glabrata
# [2] = tested on: C. glabrata clinical isolate C8 (C18); design: method as in PMID 37508306; conditions: ref [12]; cited from earlier work
# [3] = C9 at constant 3 µM, dilutions in µg/mL
# [4] = C11 at constant 3 µM, dilutions in µg/mL
# [5] = C13 at constant 3 µM, dilutions in µg/mL
# [6] = C15 at constant 3 µM, dilutions in µg/mL
compound,measurement,setting,value
CCCCCCCCCC(=O)N(C)CCC[N+](C)(C)CC(=O)[O-] [C9],TK (Krafft temperature),Krafft temperature (TK),<0 °C
β-aescin,Multiplicity factor (MF) with C9,C. glabrata 2853; C9 3 µM,1
same,MIC90 of antimycotic combined with C9,C. glabrata 2853; [3],128
same,Multiplicity factor (MF) with C11,C. glabrata 2853; C11 3 µM,1
same,MIC90 of antimycotic combined with C11,C. glabrata 2853; [4],128
same,Multiplicity factor (MF) with C13,C. glabrata 2853; C13 3 µM,1
same,MIC90 of antimycotic combined with C13,C. glabrata 2853; [5],128
same,Multiplicity factor (MF) with C15,C. glabrata 2853; C15 3 µM,1
same,MIC90 of antimycotic combined with C15,C. glabrata 2853; [6],128
same,MFC,C. glabrata DSM 1226,160 µg/mL
same,MIC,C. glabrata DSM 1226,80 µg/mL
same,Expression of ERG11 and ALS3,ERG11 and ALS3,downregulation
same,"Increase versus control (FACS, membrane integrity)",C. glabrata cells; 1 × MIC,about 7.4%
same,"Increase versus control (FACS, membrane integrity)",C. glabrata cells; 2 × MIC,~22%
same,MFC,[1],100 µg/mL
same,MIC,[1],50 µg/mL
same,Multiplicity factor (MF) with C9,C. glabrata 2586; C9 3 µM,2
same,MIC90 of antimycotic combined with C9,C. glabrata 2586; [3],128
same,Multiplicity factor (MF) with C11,C. glabrata 2586; C11 3 µM,2
same,MIC90 of antimycotic combined with C11,C. glabrata 2586; [4],128
same,Multiplicity factor (MF) with C13,C. glabrata 2586; C13 3 µM,2
same,MIC90 of antimycotic combined with C13,C. glabrata 2586; [5],128
same,Multiplicity factor (MF) with C15,C. glabrata 2586; C15 3 µM,2
same,MIC90 of antimycotic combined with C15,C. glabrata 2586; [6],128
same,MFC,[2],100 µg/mL
same,MIC,[2],40 µg/mL
